In patent US20230373989A1, “N-PHENYLAMINOCARBONYL PYRIDINO-, PYRIMIDINO AND BENZO-TROPANES AS MODULATORS OF GPR65” (PATHIOS THERAPEUTICS LIMITED, priority 2020, published 2023):

Target: T1, human recombinant GPR65 (Homo sapiens, UniProt Q8IYL9)
T1 construct: host or cells: 1321N1 human astrocytoma cells (1321N1-hrGPR65)
Test: Human GPR65 cAMP HTRF antagonist assay
Format: cell-based
Conditions: not given
Method in brief: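 1321N1 astrocytoma cells stably expressing GPR65 were preincubated with compound for 30 min at room temperature in KRH pH 7.6 with 1 mM IBMX and 200 μM EDTA. They were then stimulated at assay pH 7.2 for 30 min, with controls at pH 7.9. cAMP was read by HTRF (665/620 nm), normalised to controls and fitted by 4-parameter logistic to give IC50.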

T1 sequence (Q8IYL9 whole entry): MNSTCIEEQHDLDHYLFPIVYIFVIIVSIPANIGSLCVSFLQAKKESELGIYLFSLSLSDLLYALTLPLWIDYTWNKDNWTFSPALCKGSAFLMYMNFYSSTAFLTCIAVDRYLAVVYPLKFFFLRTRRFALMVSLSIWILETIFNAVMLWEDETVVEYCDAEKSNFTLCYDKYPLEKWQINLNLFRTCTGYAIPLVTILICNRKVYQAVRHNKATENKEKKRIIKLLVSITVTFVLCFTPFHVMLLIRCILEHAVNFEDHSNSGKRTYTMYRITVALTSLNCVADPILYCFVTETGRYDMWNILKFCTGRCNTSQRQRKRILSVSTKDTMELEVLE

Row | SMILES | IC50
1 | O=C(Nc1ccc(OC(F)F)c(Cl)c1)N1[C@H]2CC[C@@H]1c1c[nH]c(=O)cc1C2 [Compound 127, (6S,9R)-N-(3-Chloro-4-(difluoromethoxy)phenyl)-3-oxo-3,5,6,7,8,9-hexahydro-2H-6,9-epiminocyclohepta[c]pyridine-10-carboxamide] | < 0.5 µM
2 | O=C(Nc1ccc(OC(F)(F)F)c(Cl)c1)N1[C@H]2CC[C@@H]1c1c[nH]c(=O)cc1C2 [Compound 128, (6S,9R)-N-(3-Chloro-4-(trifluoromethoxy)phenyl)-3-oxo-3,5,6,7,8,9-hexahydro-2H-6,9-epiminocyclohepta[c]pyridine-10-carboxamide] | < 0.5 µM
3 | O=C(Nc1cc(C(F)(F)F)c(Cl)cc1F)N1[C@H]2CC[C@@H]1c1c[nH]c(=O)cc1C2 [Compound 129, (6S,9R)-N-(4-Chloro-2-fluoro-5-(trifluoromethyl)phenyl)-3-oxo-3,5,6,7,8,9-hexahydro-2H-6,9-epiminocyclohepta[c]pyridine-10-carboxamide] | < 0.5 µM
4 | O=C(Nc1ccc(OC(F)F)c(Cl)c1)N1[C@H]2CC[C@@H]1c1ccnc(F)c1C2 [Compound 133, (5R,8S)—N-(3-Chloro-4-(difluoromethoxy)phenyl)-1-fluoro-6,7,8,9-tetrahydro-5H-5,8-epiminocyclohepta[c]pyridine-10-carboxamide] | < 0.5 µM
5 | C[C@H]1c2cnccc2[C@H]2CC[C@@H]1N2C(=O)Nc1ccc(Cl)c(Cl)c1 [Compound 134, (5R,8S,9S)-N-(3,4-Dichlorophenyl)-9-methyl-6,7,8,9-tetrahydro-5H-5,8-epiminocyclohepta[c]pyridine-10-carboxamide] | < 0.5 µM
6 | O=C(Nc1ccc(Cl)c(Cl)c1)N1[C@@H]2CC[C@H]1[C@@H](F)c1cc(F)ncc12 [Compound 140, (5S,6S,9R)-N-(3,4-Dichlorophenyl)-3,5-difluoro-6,7,8,9-tetrahydro-5H-6,9-epiminocyclohepta[c]pyridine-10-carboxamide] | < 0.5 µM
7 | O=C(Nc1cc(Cl)c(Br)cc1F)N1[C@H]2CC[C@@H]1c1c[nH]c(=O)cc1C2 [Compound 141, (6S,9R)-N-(4-Bromo-5-chloro-2-fluorophenyl)-3-oxo-3,5,6,7,8,9-hexahydro-2H-6.9-epiminocyclohepta[c]pyridine-10-carboxamide] | < 0.5 µM
8 | O=C(Nc1cc(Br)c(Cl)cc1F)N1[C@H]2CC[C@@H]1c1c[nH]c(=O)cc1C2 [Compound 142, (6S,9R)-N-(5-Bromo-4-chloro-2-fluorophenyl)-3-oxo-3,5,6,7,8,9-hexahydro-2H-6,9-epiminocyclohepta[c]pyridine-10-carboxamide] | < 0.5 µM
9 | O=C(Nc1ccc(Br)c(Cl)c1)N1[C@H]2CC[C@@H]1c1c[nH]c(=O)cc1C2 [Compound 143, (6S,9R)-N-(4-Bromo-3-chlorophenyl)-3-oxo-3,5,6,7,8,9-hexahydro-2H-6,9-epiminocyclohepta[c]pyridine-10-carboxamide] | < 0.5 µM

Same assay, conditions: 1321N1-hrGPR65 cells, assay pH 7.2, cAMP HTRF; read-out: hGPR65 IC50 (activity class)

Row | SMILES | IC50
10 | COC(=O)c1ccc(NC(=O)N2[C@H]3CC[C@@H]2c2c[nH]c(=O)cc2C3)cc1Cl [Compound 130, Methyl 2-chloro-4-((6S,9R)-3-oxo-3,5,6,7,8,9-hexahydro-2H-6,9-epiminocyclohepta[c]pyridine-10-carboxamido)benzoate] | 0.5 to 5 µM
11 | COC(=O)c1cc(NC(=O)N2[C@H]3CC[C@@H]2c2c[nH]c(=O)cc2C3)ccc1Cl [Compound 131, Methyl 2-chloro-5-((6S,9R)-3-oxo-3,5,6,7,8,9-hexahydro-2H-6,9-epiminocyclohepta[c]pyridine-10-carboxamido)benzoate] | 0.5 to 5 µM
12 | COC(=O)c1cc(NC(=O)N2[C@H]3CC[C@@H]2c2c[nH]c(=O)cc2C3)c(F)cc1Cl [Compound 132, Methyl 2-chloro-4-fluoro-5-((6S,9R)-3-oxo-3,5,6,7,8,9-hexahydro-2H-6,9-epiminocyclohepta[c]pyridine-10-carboxamido)benzoate] | 0.5 to 5 µM
